Test results published in US4060526A, “1-Heterocyclic alkyl-1,2,3,4-tetrahydroquinazolinones and analgesic intermediates thereof” (priority 1976, dated 1977).
Read-outs that look alike come from different tables or passages of the source.

Key:
[1] = in vivo; details: mouse
[2] = system: oxymorphone induced mydriasis; assay: antagonism of oxymorphone induced mydriasis; assay type: in vivo, mice; details: mice; words
Description: (§1) The compounds of this invention were tested for their ability to antagonize narcotic analgesics by two different tests. […] Another test used for narcotic antagonist activity was published by Harris & Pearson. This test is modification of the D'Amour & Smith method.

[3] = in vivo
[4] = system: phenylbenzoquinone writhing; assay: phenylbenzoquinone writhing test, mouse; assay type: in vivo; details: po; Mouse p.o.
Description: (§5) In addition to the hot plate method, the writhing test described by Sigmund et al., Soc. Exp. Biol. and Med. 95:729 (1957) has been applied in both rats and mice as further indication of analgesics. […] The stimulus of intraperitoneal injection of phenylbenzoquinone results in a writhing syndrome characterized by periodic twisting and stretching of the body with extension of the hind legs. […] The dose of compound protecting 50% of the animals is determined and expressed as the ED50. Ten animals are used at each dose level.

[5] = phenylbenzoquinone writhing test, mouse; assay type: in vivo; details: mouse, in vivo, po, Mouse p.o.
Description: as §5

[6] = system: heat stimulus; assay: mouse hot plate test (Eddy and Leimbach, modified); details: Mus musculus, read-out: Hot Plate ED50
[7] = acute toxicity, cat; details: in vivo, ip; Cat i.p.; preliminary result (740-222)
Description: (§2) Compounds were administered in 2% clearjel as a suspension except in
(§3) Toxicities have only been run with male animals to date.

[8] = acute toxicity, rat; details: in vivo, sc; Rat s.c.; preliminary result
Description: as §2, §3

[9] = system: NARCOTIC ANTAGONISM; assay: narcotic antagonism (Table IV); assay type: in vivo; details: I.P.
Description: as §1
(§4) In the original method the time required for rats to flick their tails following application of a heat stimulus is taken as a measure of analgesic potency.

[10] = in vivo; remark: listed apart in the source
[11] = system: sciatic nerve; assay: local anesthesia, sciatic block; assay type: in vivo, mice; details: Pos. = blockade took place and leg and foot returned to normal after a time
Description: An effective local anesthetic causes a blockade of the nerves of the lower leg and foot causing the animal, when permitted to walk, to do so flatfooted, rather than its normal habit, up on its toes. Alternatively an effective local anesthetic, by the sciatic block method, can cause the leg to be dragged by the animal when walking so long as effective sciatic block persists. Toxic agents may effect the same apparent results, but the blockade effected by toxic agents is irreversible. However, in contrast to toxic agents, an effective local anesthetic permits recovery of the use of the leg and foot after a period of time.
The mice used in the sciatic block test were placed in a holder with their hind limbs extended. A quantity of the test compound (e.g. 0.05 ml) was injected into the area surrounding the sciatic nerve at the juncture of the two major leg muscles. Effective local anesthetic activity is indicated in Table IV ("Pos." --meaning that the blockade did take place and that the leg and foot returned to normal after a time.)

[12] = system: MOUSE TAIL STIMULATION; assay: mouse tail stimulation analgesia; details: for ED50: Mus musculus, sc, read-out: MOUSE TAIL STIMULATION ED50
[13] = system: heat stimulus; assay: D'Amour Smith Rat Tail Flick; assay type: in vivo; details: Sub. cut.
Description: as §4

Structure (SMILES) | NARCOTIC ANTAGONISM [9] | LD50 ([10]; ip) | NOAEL ([10]; ip) | LOCAL ANESTHESIA SCIATIC BLOCK [11] | further results
COc1ccc2c3c1O[C@H]1[C@@H](O)C=C[C@H]4[C@@H](C2)N(C)CC[C@@]341 [Codeine, reference compound] |  |  |  |  | selectivity ratio ([1]; ip, HNSD./ED50 H.P., Mouse i.p., HNSD = highest dose without gross symptoms): 2.6; selectivity ratio ([1]; ip, LD50 /ED50 H.P., Mouse i.p.): 8.7; selectivity ratio ([1]; po, HNSD./ED50 H.P., Mouse p.o., HNSD = highest dose without gross symptoms): 5; selectivity ratio ([1]; po, LD50 /ED50 H.P., Mouse p.o.): 27; effect of narcotic agents on pupil size [2]: no change or an increase in the pupil size; LD50 at 48 h ([3]; mouse, ip): 104 mg/kg; LD50 at 48 h ([3]; mouse, po): 540 mg/kg; ED50 [4]: 17 mg/kg; selectivity ratio ([5]; HNSD = highest dose without gross symptoms, read-out: HNSD./ED50 Writhing): 5.9; selectivity ratio ([5]; read-out: LD50 /ED50 Writhing): 32; ED50 ([6]; ip): 12 mg/kg; ED50 ([6]; po): 20 mg/kg
NC(=O)c1ccccc1NCCN1CCN(c2ccccc2)CC1 [Example 730-372A, 2-[2-(4-[1-Phenyl]piperazinyl)ethylamino]-benzamide] |  |  |  |  | LD50 at 48 h ([3]; ip, Mouse i.p., read-out: LD50 (48 hr)): > 1000 mg/kg; LD50 at 48 h ([3]; iv, Mouse i.v., solution (5mg/ml) in distilled water, read-out: LD50 (48 hr)): 50 mg/kg; LD50 at 48 h ([3]; po, Mouse p.o., read-out: LD50 (48 hr)): > 1000 mg/kg; LD50 at 48 h ([3]; sc, Mouse s.c., read-out: LD50 (48 hr)): > 1000 mg/kg; LD50 at 48 h [7]: > 1000 mg/kg; LD50 at 48 h [8]: > 1000 mg/kg
Cl.Cl.Cl.NC(=O)c1ccccc1NCCN1CCN(Cc2ccccc2)CC1 [Example XX, 2-(2-[4-Benzyl-1-piperazinyl]ethylamino)benzamide trihydrochloride] | Positive | 100 mg/kg | 10 mg/kg |  | 
CS(=O)(=O)O.O=C1NC(c2ccccc2)N(CCN2CCC(O)(c3ccccc3)CC2)c2ccccc21 (stereo not shown) [Example XXVI, 1-[2-(4-Hydroxy-4-phenylpiperidino)ethyl]-2-phenyl-1,2,3,4-tetrahydro-4-quinazolinone Methanesulfonate] | Negative | 200 mg/kg | 3 mg/kg | Positive | 
NC(=O)c1ccccc1N(CCN1CCC(O)(c2ccccc2)CC1)Cc1ccccc1 [Example XXVII (Step 4 Title Compound), 2-[Benzyl-(2-[4-hydroxy-4-phenylpiperidyl]ethyl)amino]benzamide] |  | 60 mg/kg | 10 mg/kg |  | 
CCC(=O)OC1(c2ccccc2)CCN(CCN(Cc2ccccc2)c2ccccc2C(N)=O)CC1 [Example XXVII (Step 5 Title Compound)] | Negative | 100 mg/kg | 3 mg/kg |  | 
CCC(=O)OC1(c2ccccc2)CCN(CCNc2ccccc2C(N)=O)CC1 [Example XXVII, 2-[2-(4-propionoxy-4-phenylpiperidyl)ethylamino]benzamide] |  | 60 mg/kg | 0.1 mg/kg |  | ED50 [12]: 0.03 mg/kg
CCOC(=O)C1(c2ccccc2)CCN(C)CC1 [Merperidine, reference compound] | Negative | 130 mg/kg | 30 mg/kg | Positive | ED50 [12]: 1.8 mg/kg
CN1CC[C@]23c4c5ccc(O)c4O[C@H]2[C@@H](O)C=C[C@H]3[C@H]1C5 [Morphine, reference compound] | Negative |  |  |  | MOUSE TAIL STIMULATION ED50 ([12]; S.C.): 1.5 mg/kg; Rat Tail Flick ED50 [13]: 15 mg/kg
CC(C)=CCN1CCC2(C)c3cc(O)ccc3CC1C2C (stereo not shown) [Pentazocine, reference compound] | Positive | 140 mg/kg | 30 mg/kg | Positive | 
COc1ccc(N2CCN(CCNc3ccccc3C(N)=O)CC2)cc1 [VII, 2-[2-(1-[p-Methoxyphenyl]-4-piperazinyl)ethylamino] benzamide] | Positive | 300 mg/kg | 3 mg/kg | Positive | 
COC(=O)c1ccccc1NCCN1CCN(c2ccccc2)CC1 [XII, Methyl 2-[2-(1-phenyl-4-piperazinyl)ethylamino]benzoate] | Negative | 300 mg/kg | 300 mg/kg | Positive | 
CC(CNc1ccccc1C(N)=O)N1CCN(c2ccccc2)CC1.Cl (stereo not shown) [XIV, 2-[2-(4-phenyl-1-piperazinyl)propylamino]benzamide hydrochloride] | Positive | 300 mg/kg | 10 mg/kg | Positive | 
NC(=O)c1cc([N+](=O)[O-])ccc1NCCN1CCN(c2ccccc2)CC1 [XIX, 5-Nitro-2-(2-[4-phenyl-1-piperazinyl]ethylamino)benzamide] | Negative |  |  |  | LD50 ([10]; po): 300 mg/kg
CNC(=O)c1ccccc1NCCN1CCN(c2ccccc2)CC1 [XV, 2-(2-[4-phenyl-1-piperazinyl]ethylamino)-N-methylbenzamide] | Positive | 200 mg/kg | 3 mg/kg | Positive | 
Cl.O=C(c1ccccc1NCCN1CCN(c2ccccc2)CC1)N1CCOCC1 [XVI, N-(2-[2-(1-phenyl-4-piperazinyl)ethylamino]benzoyl) morpholine hydrochloride] | Positive | 250 mg/kg | 10 mg/kg |  | ED50 [12]: 30 mg/kg
Cl.NC(=O)c1ccccc1NCCN1CCN(CCc2ccccc2)CC1 [XVII, 2-[2-(4-phenethyl-1-piperazinyl)ethylamino]benzamide hydrochloride] | Negative | 70 mg/kg | 10 mg/kg | Positive | 
COc1ccc(NCCN2CCN(c3ccccc3)CC2)c(C(N)=O)c1 [XVIII, 5-Methoxy-2-(2[4-phenyl-1-piperazinyl]ethylamino)benzamide] | Positive | 300 mg/kg | 1 mg/kg |  | 
Cl.NC(=O)c1cc(N)ccc1NCCN1CCN(c2ccccc2)CC1 [XXI, 5-Amino-2-(2-[4-phenyl-1-piperazinyl]-ethylamino)benzamide hydrochloride] | Positive | 200 mg/kg | 10 mg/kg | Positive | 
O=C(Nc1ccccc1)c1ccccc1NCCN1CCN(c2ccccc2)CC1 [XXII, 2-[2-(1-Phenyl-4-piperazinyl)ethylamino]-N-phenylbenzamide] | Positive | 300 mg/kg | 0.3 mg/kg | Negative | 
CCOc1ccc(NCCN2CCN(c3ccccc3)CC2)c(C(N)=O)c1 [XXIV, 5-Ethoxy-2-(2-[4-phenyl-1-piperazinyl]ethylamino)benzamide] | Negative | 300 mg/kg | 30 mg/kg |  | 
CCC(=O)OC1(c2ccccc2)CCN(CCNc2ccccc2C(=O)NC)CC1 [XXIX, 2-[2-(4-Propionoxy-4-phenylpiperidyl)ethylamino]-N-methyl-benzamide] |  |  |  |  | LD50 ([10]; po): 16 mg/kg
CCC(=O)OC1(c2ccccc2)CCN(CCN(Cc2ccccc2)c2ccccc2C(=O)NC)CC1 [XXVIII, 2-[Benzyl-(2-[4-propionoxy-4-phenylpiperidyl]ethyl)amino]-N-methyl-benzamide] |  |  |  |  | LD50 ([10]; po): 250 mg/kg
NC(=O)c1ccccc1NCCN1CCC(c2ccccc2)CC1 [XXX, 2-[2-(4-phenyl-1-piperidyl)ethylamino]benzamide] | Positive | 200 mg/kg | 10 mg/kg | Positive | 
NC(=O)c1ccccc1NCCN1CCCCC1 [XXXI, 2-[N-β-(1-Piperidinoethyl)amino]benzamide] | Positive | 40 mg/kg | 10 mg/kg |  | 
CC(CN1CCN(c2ccccc2)CC1)Nc1ccccc1C(N)=O (stereo not shown) [XXXII, 2-[1-methyl-2-(4-phenyl-1-piperazinyl)ethylamino]benzamide] | Negative | 300 mg/kg | 3 mg/kg |  | 
